Measured values from US9669063B2, “Composition for prevention, amelioration or treatment of metabolic syndrome” (MORISHITA JINTAN CO., LTD., priority 2012, dated 2017).

Tested on: diet-induced obese mice
Test: Test Example 2: diet-induced obese mice on low-calorie feed with RHP, caffeine or their mixture, body weight, calorie intake, epididymal fat
Format: in vivo, KK mice
Method: Mice were fed with a high-calorie feed for the preparation of diet-induced obese mice. The calorie intake of the diet-induced obese mice was restricted so as to induce a state of facilitated resolution and utilization of body fat, and then the composition of the present invention containing a rose hip extract and caffeine was given to the mice. In this way, examination was conducted to determine whether the composition could facilitate the resolution and utilization of body fat and thereby ameliorate obesity. Five-week-old male KK mice were fed with water and the powder feed for breeding for three days, and then fed with the high-calorie feed for 3 weeks for the preparation of diet-induced obese mice. The diet-induced obese mice were divided into three groups (six mice per group) and fed with the feed (1) to (3) shown below for 2 weeks. The feeds given to the test groups are as follows. […] After the end of the test, the mice were euthanized, and epididymal fat tissue was harvested and weighed. […] The results are shown as the mean±SD of each group. Diet-induced obese mice were divided into four groups (six mice per group) and fed with the feed (4) to (7) shown below. Other test conditions were the same as in Test Example 1. The results in Table 3 were statistically analyzed by Dunnett's multiple comparison test. The symbol ** indicates a significant difference with a risk less than 1% from the control group.

Cn1c(=O)c2c(ncn2C)n(C)c1=O [caffeine]
reduction in weight of epididymal fat tissue as compared with the control group (0.025 mass % caffeine in low-calorie feed): 9.2%
statistical significance of fat-reducing effect vs control (0.025 mass % caffeine in low-calorie feed, Dunnett's test): none of them showed any statistically significant fat-reducing effect
Body weight (low-calorie feed + 0.025 mass % caffeine, 2 weeks, last day of test, mean±SD): 35.2 ± 1.8 g
Epididymal fat weight (low-calorie feed + 0.025 mass % caffeine, 2 weeks, mean±SD): 1.60 ± 0.19 g/100 g body weight
